Data on four molecules can be found in article PMC6540241, “Targeting Tumor Markers with Antisense Peptides: An Example of Human Prostate Specific Antigen” (International Journal of Molecular Sciences, 2019).

Broadly, the Kd is a measure of binding affinity in units of concentration.

Sequences and labels used below:
B1: N-terminal biotin antisense peptide Biotin-AVRDKVG (peptide)
peptide: Biotin-AVRDKVG
modifications: not fully specified
notes: Some sentences print AKRDKVG; also called biotinylated antisense peptide AVRDKVG; antisense paratope Biotin-AVRDKVG; source: synthetic peptide, bought: GenScript (>97% purity)
B2: Human prostate specific antigen (hPSA) peptide 53–59: RHSLFHP (peptide)
peptide: RHSLFHP
notes: human prostate specific antigen (hPSA), residues 53-59 (R53-P59); 77-83 of the precursor P07288; In the magnetic particle enzyme immunoassay the peptide was coupled by EDC to SPHERO carboxyl magnetic particles; also called sense peptide; source: synthetic peptide, bought: GenScript (>97% purity)

For assay [1], the system named is human prostate specific antigen (hPSA) in prostate cancer tissue. Nature of the assay: Immunohistochemical staining of hPSA, protocol 2 (biotinylated peptide instead of primary antibody). The note with it: mismatched peptide, negative control. As to the method:
Immunohistochemistry was performed on deparafinized slides (xylen and a series of ethanol solutions) at room temperature (20–25 °C). The phosphate-buffered saline (PBS) was used, with a pH of 7.2 and containing disodium hydrogen phosphate, sodium chloride, potassium chloride and potassium dihydrogen phosphate was used. PBS stock solution: 4 g KH2PO4, 23 g Na2HPO4, 4 g KCl, 160 g NaCl and 810 mL distilled water. Before staining, 100 mL of stock solution was diluted with 1900 mL of distilled water.
All slides (from seven patients) were selected from the repository of prostate cancer tissue, with diagnosis confirmed by consensus of two independent pathologists. The two pathologists who examined the slides stained with antisense peptides were unconnected with the pathologists who established the initial diagnosis.
Each of the two immunohistochemistry protocols for PSA staining consisted of six steps. Steps 1, 4, 5 and 6 of protocol 1 and protocol 2 were identical, while steps 2 and 3 differed (Figure 5 and Figure 6). For this study, the slides were kept in the dark at room temperature (20–25 °C), to prevent fading as a result of exposure to strong light. They were analyzed using an Olympus BX41 microscope, with an Olympus DP71 camera set to three levels of magnification: less than 40×, 100×, and 500×.
The staining protocol 2 was a modified IHC protocol 1, as follows: In step 2 we used antisense peptide Biotin-AVRDKVG, instead of the primary monoclonal mouse anti-human PSA antibody, in step 3 we used rabbit polyclonal antibody to biotin conjugated to HRP, instead of HRP labeled polymer conjugated to goat anti-mouse immunoglobulins (Figure 5), with peptide Biotin-EHFRW as a negative control (Figure 7). Otherwise, the procedures and chemicals were identical. Quality control for the PSA staining was investigated using NordiQC scoring criteria: 0—Poor; 1—Borderline; 2—Good; 3—Optimal. The scale is presented in Table A2, and the final results given in Table 4 are expressed as a sum of scores.
IHC staining―protocol 2: • The specimen was covered with peroxidase block, i.e., 100 μL of 0.03% hydrogen peroxide containing sodium azide (Dako, Glostrup, Denmark), and incubated for four minutes. Following this, the specimen was gently rinsed with phosphate buffered saline (PBS), and placed in a fresh buffer bath. • Biotinylated antisense peptide AVRDKVG (GenScript, Piscataway, NJ, USA) directed to PSA epitope 53–59 (RHSLFHP) was used to cover the specimen. Five milligrams of Biotin-AVRDKVG antisense was diluted in 2.5 mL PBS. Dilutions 1:10, 1:50, 1:100, 1:200 and 1:500 were applied to cover the specimen. A 100 μL volume was used per section. After 30 min of incubation, each specimen was gently rinsed with PBS and placed in a fresh buffer bath. • Anti-biotin antibody conjugated to HRP (ab34645, Abcam, Cambridge, UK) was applied to cover the specimen. Of the antibody 10 mg/2 mL was diluted 1:100. One hundred microliters of the diluted antibody was applied to cover each specimen, followed by a 30 min incubation. After the incubation, the specimen was gently rinsed with PBS and placed in a fresh buffer bath. • The specimen was covered with 100 μL of AEC + substrate-chromogen solution for 10 min, i.e., 3-amino-9-ethylcarbazole containing hydrogen peroxide, stabilizers, enhancers and an anti-microbial agent (Dako, Glostrup, Denmark). After that period the specimen was again rinsed with PBS. • The slides were immersed in a bath of aqueous hematoxylin (Mayerr’s hematoxylin), and rinsed gently in a distilled water bath. The slides were dipped 10 times into a bath of ammonia (0.037 mol/L), and then rinsed in a bath of distilled water for four minutes. • The specimens were mounted and coverslipped with non-aqueous permanent mounting medium Ultramount.

Assay [2] deals with T1, hPSA peptide RHSLFHP coated onto carboxyl magnetic particles (Homo sapiens, UniProt P07288).
T1 construct: Human prostate specific antigen (hPSA) peptide 53–59: RHSLFHP; purchased GenScript; host or cells: synthetic peptide
Nature of the assay: Magnetic particle enzyme immunoassay (MPEIA). In kind it is binding. The note with it: mismatched peptide, negative control. As to the method:
Briefly, the reaction mixture was composed of 2 mL sodium acetate buffer (0.01M, pH 5.0), 2 mg of peptide and 2 mL of 2.5% w/v carboxyl magnetic particles―1.14 μm, 20 mg of EDC. Reactions proceeded in glass reaction tubes overnight at room temperature in a rotary mixer. Tubes were centrifuged at 3000× g for 15 min, supernatant was carefully discarded, and the pellets were washed twice in 4 mL isotonic buffered saline (IBS), followed by centrifugation. After washing, coated magnetic particles were resuspended in 4 mL of PBS containing 0.05% Tween 20.
Two folds serial dilutions (1.09–70 µM) of biotinylated antisense peptide AVRDKVG were made in 96-well microtiter plates to generate standard curves (Figure 4b). Mismatched peptide Biotin-EHFRW was used as a negative control (Figure 4b). A suspension (1.25% w/v) of carboxyl magnetic particles, coated with sense peptide RHSLFHP, was added to each well (40 µL/well). The plates were incubated at room temperature for 30 min and washed with PBS-Tween 20 five times. The washing solution was removed each time using the Spherotech UltraMag Separator (Sperotech, Inc., Lake Forest, IL, USA).
A blocking solution (PBS with 1% BSA) was added to the wells and incubated at room temperature for one hour. […] The absorbances were read at 450 nm on a multiwell plate reader. The data were analyzed using GraphPad Prism software version 5.

Assay [3] has as its target B2. Description: magnetic particle enzyme immunoassay (MPEIA); RHSLFHP coupled by EDC to SPHERO carboxyl magnetic particles; biotinylated peptide in two-fold dilutions 1.09–70 µM, room temperature, 30 min, PBS-Tween 20 washes; detected with streptavidin-peroxidase polymer and OPD, absorbance at 450 nm. The note with it: both partners purified.
Assay [4] concerns the target B1. Nature of the assay: MST; Biotin-AVRDKVG labelled with DY-495 kept constant; unlabelled RHSLFHP titrated 0.0854 µM to 2.8 mM in 10 mM phosphate buffer; Monolith NT.115, standard capillaries. To be noted: both partners purified.

Where no end group is shown, it is not given here. The star is where a group is joined. Biotin = O=C1N[C@H]2[C@H](CS[C@H]2CCCCC(=O)*)N1

In the case of “Biotin-EHFRW [N-terminal biotin mismatched peptide, negative control, reference compound]”, the “staining of hPSA of the prostate tissue” value in assay [1] is given as “did not stain”.

On to “Biotin-EHFRW: N-terminal biotin mismatched peptide, negative control [reference compound]”, for which, in assay [2], the “binding to hPSA epitope RHSLFHP” value is “does not bind”.

Turning to B1, the equilibrium dissociation constant (Kd) in assay [3] was 24.6 µM.

The molecule B2 yielded a Kd in assay [4] of 24.3 µM.
